US20250127790A1, “COMBINATION THERAPY USING VPS34 INHIBITORS” (Deciphera Pharmaceuticals, LLC, priority 2021, published 2025)

Legend:
[1] = system: THP-1 dual reporter cells; assay: THP-1 dual reporter assay (ISRE and NF-κB promoter activity); format: cell-based, human; settings: 5 μg/mL ADU-S100, 2 μM Compound 1 or 2, overnight
Procedure: THP1-Dual™ Cells lines were purchased from InvivoGen (WT (thpd-nfis) and STING-KO (thpd-kostg)) and cultured as recommended by manufacturer: in RPMI media (Gibco 22400-071) supplemented with 10% heat-inactivated Fetal Bovine Serum (FBS) (Gibco A38400-02) and 1× Pen-Strep-Glutamine (Gibco 10378-016). Cells were treated with selective antibiotic every other passage using 100 μg/ml Normocin™ (InvivoGen ant-nr-1), 10 μg/ml of blasticidin (InvivoGen ant-bl-05) and 100 μg/ml of Zeocin™ (InvivoGen ant-zn-05). THP1-Dual™ Cells (wild-type or STING-KO) were seeded at 1.5×10^5 cells/well in 96-well plates. Cells were treated with DMSO, 5 μg/mL ADU-S100, 2 μM Compound 1 or 2 or the combinations overnight. The next day, 10 μL of the media from the treated cells were mixed with 50 μL of QUANTI-Luc™ Gold (Invivogen rep-qlcg2) in a white 96-well plate (Thermo Scientific 9502887) to measure the interferon-sensitive response element (ISRE) promoter activity through Luciferase signal using a plate reader. For measuring NF-κB promoter activity, 10 μL of the media from the treated cells were mixed with 90 μL of QUANTI-Blue™ (Invivogen rep-qbs3) in white-96-well plates (Corning-Costar 3610), then incubated at 37° C. for one hour. The signal was then measured using a plate reader with detection at 640 nm wavelength.

[2] = system: THP-1 dual reporter cells; assay: Cytokine secretion in wild-type and STING knockout THP-1 dual reporter cells; format: cell-based, human; settings: wild-type THP-1 dual reporter cells
[3] = system: A-498 cells; assay: Western blot, STAT1 phosphorylation in A-498 cells; format: cell-based, human
Procedure: A-498 cells were seeded at 1.5×10^5 cells/well in 6-well plates and cultured overnight. Cells were treated with 10 μg/mL mouse monoclonal antibody to human interferon α/β receptor chain 2 (α-IFNAR2) (clone: MMHAR-2, #21385-1, PBL Assay Science) or 10 μg/mL mouse IgG2a isotype control antibody (clone: eBM2a, #16-4724-81, Thermo Fisher Scientific). After 1 h, DMSO or 2 μM Compound 1 was added and cells were incubated for another 24 h. […] A-498 cells were washed in PBS and lysed in RIPA buffer (50 mM Tris HCl pH=7.4, 150 mM NaCl, 1% Triton X-100, 0.5% Na-deoxycholate, 0.1% SDS) containing protease inhibitor cocktail (#11836170001, Roche), and phosphatase inhibitor (#11836170001, Roche) for 10 min at 4° C. After centrifugation at 15000 rpm for 10 min at 4° C., the supernatant was obtained, and protein concentration was quantified using BCA assay (#23225, Thermo Fisher). Equal amounts were mixed with 0.1 M DTT and LDS Sample Buffer (#84788, Thermo Fisher), heated for 5 min at 90° C. before loading onto 4-12% Bis-Tris gels. Proteins were transferred to nitrocellulose membranes. Membranes were blocked in 5% non-fat dry milk in TBS with 0.05% Tween (TBS-T) for 1 h at RT, washed in TBS-T, and probed with primary antibodies shaking overnight at 4° C. After washing in TBS-T, membranes were incubated with IRDye 800CW goat anti-rabbit or IRDye 680RD donkey anti-mouse IgG (H+L) (#926-32211 and #926-68072, respectively, LI-COR, 1:10,000 dilution) secondary antibody in Intercept blocking buffer (#927-60001, LI-COR) for 1 h at RT. After washing in TBS-T, membranes were imaged using the Odyssey CLx (LI-COR). Band intensities were quantified using Image Studio Lite software version 5.2.5 (LI-COR).

[4] = system: B16-F10 tumors; assay: In vivo study of B16-F10 tumors; parameters: species or system C57BI/6 mice
Procedure: B16-F10 tumor-bearing C57BI/6 mice were treated with vehicle or 20 mg/kg Compound 1 p.o. (daily from day 7-16) in combination with PBS or 10 μg ADU-S100 i.t. (on days 9, 11, 13, and 15).

Structure (SMILES)	ISRE activity (QUANTI-Luc) [1]	NFκB activity (QUANTI-Blue) [1]	secretion of CCL5 [2]	secretion of CXCL10 [2]	secretion of IFNβ [2]	phosphorylation of STAT1 ([3]; 2 μM Compound 1, 24 h)	total levels of STAT1 ([3]; 2 μM Compound 1, 24 h)	phosphorylation of STAT1 with addition of α-IFNAR2 ([3]; 10 μg/mL α-IFNAR2 antibody 1 h before 2 μM Compound 1, 24 h)	sensitization of B16-F10 tumors to STING agonist treatment (tumor growth, survival) ([4]; C57BI/6 mice, 20 mg/kg Compound 1 p.o. daily day 7-16 with 10 μg ADU-S100 i.t. on days 9, 11, 13, 15)	mice survival ([4]; Renca and B16-F10 tumor-bearing mice, Compound 1 with STING agonist treatment)
Nc1ncnc2c1ncn2[C@@H]1O[C@@H]2COP(=O)([S-])O[C@@H]3[C@H](O)[C@@H](COP([O-])(=S)O[C@H]2[C@H]1O)O[C@H]3n1cnc2c(N)ncnc21.[Na+].[Na+] (stereo partly shown) [ADU-S100, reference compound]	stimulates	stimulates	stimulates	stimulates	stimulates	–	–	–	–	–
C[C@@H]1COCCN1c1cc(N2CCCC[C@@H]2C(F)(F)F)[nH]c(=O)c1 [Compound 1, 4-((R)-3-methylmorpholino)-6-((R)-2-(trifluoromethyl)piperidin-1-yl)pyridin-2(1H)-one]	–	–	–	–	–	increased	did not alter	inhibited	sensitized	significantly improved
